In US20240287052A1, “NOVEL OXAZOLE DERIVATIVE AND PHARMACEUTICAL COMPOSITION FOR PREVENTING OR TREATING ALLERGIC DISEASES COMPRISING THE SAME” (AZCURIS CO., LTD., priority 2021, published 2024):

What was measured:
[1] = test system: IL-6 secretion in the human mast cell line HMC 1.1; assay: IL-6 production inhibition assay (IL-33 stimulated HMC 1.1 cells, IL-6 ELISA); type: cell-based; settings: 24 hours; for inhibition at 1 µM: 1 μM compound, read-out: Inhibition of hIL-6 production (%) 1 μM; for inhibition at 10 µM: 10 μM compound, read-out: Inhibition of hIL-6 production (%) 10 μM
Experimental: Human mast cell line HMC 1.1 cells were cultured in medium (Iscove's Modified Dulbecco's Medium, IMDM, HyClone) supplemented with […] fetal bovine serum (FBS, HyClone) and 1% antibiotics and maintained at 37° C. with 5% CO2.
HMC 1.1 cells, which are non-adherent cells, were cultured in 0.5 mL of culture medium containing 200 nM of IL-33 wild type human recombinant protein after centrifugation of cells in culture flasks filled to […] capacity and incubated for 24 hours with […], 10 μM, 25 μM, 30 μM or 50 μM of Example compound.
Medium was harvested by centrifugation (2,000×g, 5 min) and stored at −80° C. until ELISA assay.
Experiments were performed according to the protocol using the Human IL-6 ELISA kit (abCam).
The average of the three values obtained in triplicate was calculated and the amount of IL-6 secretion was measured using a standard curve. The measured IL-6 secretion was converted to 100% based on the vehicle treatment sample value to obtain the vehicle %.

[2] = molecular target: T1, IL33 and ST2 binding (Homo sapiens, UniProt O95760); settings: 30 µM;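 further: plate ELISA with coated Flag-tagged human IL-33 and His-tagged human ST2, bound ST2 detected by anti-His HRP and TMB absorbance at 450 nm, 2 h compound incubation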
T1 sequence (O95760 112-270 limits assumed): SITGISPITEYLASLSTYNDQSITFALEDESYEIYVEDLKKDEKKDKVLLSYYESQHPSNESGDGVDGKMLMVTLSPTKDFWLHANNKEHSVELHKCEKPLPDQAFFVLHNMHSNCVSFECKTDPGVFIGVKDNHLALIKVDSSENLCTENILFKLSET
Experimental: 100 nM of Flag tagged IL-33 human recombinant protein was prepared in 1× coating buffer (Biolegend) and placed in a 96 well microplate (Coming) using a Multichannel pipette (Gilson) and coated for at least 12 hours at 4° C.
After washing three times with PBST (1×PBS (Welgene), 1% Tween 20 (sigma)), it was reacted with 1% BSA (Bovogen) blocking buffer for 1 hour at room temperature.
Samples containing 200 nM of His-tagged ST2 human recombinant protein and 60 μM or 200 μM Example synthetic compounds were prepared, added in equal volumes, and reacted for at least 2 hours at room temperature.
After washing three times with PBST (1×PBS (Welgene), 1% Tween 20 (sigma)), anti-His HRP (BioLegend) antibody was diluted 5000:1 and reacted for at least 1 hour at room temperature.
After washing three times with PBST (1×PBS (Welgene), 1% Tween 20 (sigma)), TMB substrate solution (Thermo) was added and reacted for more than 5 minutes. The reaction was stopped by adding 1 N HCl (Samchun) and the absorbance value was obtained at 450 nm after orbital shaking for 5 s with a Microplate reader (Tecan, Spark®).
The results derived from the program linked to the microplate reader were analyzed using an Excel program. IL33-ST2 binding rate (binding %) was calculated by averaging the three values obtained in triplicate, subtracting the positive control value, and converting the negative control value to 100%. The inhibition % value of each compound was obtained by subtracting the IL33-ST2 binding % from 100%, and the error range of triplicate was also obtained and reflected in the inhibition graph of the compound.

Row | SMILES | inhibition at 1 µM [1] [%] | inhibition at 10 µM [1] [%] | inhibition [2] [%]
1 | CCOC(=O)c1nc(-c2ccc(C(F)(F)F)cc2)oc1-c1ccc(OC)c(OC)c1 [Compound 47, Ethyl 5-(3,4-dimethoxyphenyl)-2-(4-(trifluoromethyl)phenyl)oxazole-4-carboxylate] | 36 | 26 | -57
2 | CCNC(=O)c1nc(-c2ccc(C#N)cc2)oc1-c1ccccc1 [Compound 315, 2-(4-cyanophenyl)-N-ethyl-5-phenyloxazole-4-carboxamide] | 47 | 61 | -4
3 | CCNC(=O)c1nc(-c2cccc(Cl)c2)oc1-c1ccccc1 [Compound 314, 2-(3-Chlorophenyl)-N-ethyl-5-phenyloxazole-4-carboxamide] | 10 | 81 | -18
4 | CCNC(=O)c1nc(-c2ccc(C(F)(F)F)cc2)oc1-c1ccccc1OC(F)(F)F [Compound 305, N-Ethyl-5-(2-(trifluoromethoxy)phenyl)-2-(4-(trifluoromethyl)phenyl)oxazole-4-carboxamide] | -4 | 26 | -17
5 | CCNC(=O)c1nc(-c2ccc(C(F)(F)F)cc2)oc1-c1cccc(C#N)c1 [Compound 311, 5-(3-Cyanophenyl)-N-ethyl-2-(4-(Trifluoromethyl)phenyl)oxazole-4-carboxamide] | 64 | 80 | -5
6 | CC(=O)N1CCN(CCNC(=O)c2nc(-c3ccc(C(F)(F)F)cc3)oc2-c2cccnc2)CC1 [Compound 197, N-(2-(4-acetylpiperazin-1-yl)ethyl)-5-(pyridin-3-yl)-2-(4-(trifluoromethyl)phenyl)oxazole-4-carboxamide] | 62 | 70 | 99
7 | CCNC(=O)c1nc(-c2cc(F)cc(F)c2)oc1-c1ccccc1 [Compound 313, 2-(3,5-Difluorophenyl)-N-ethyl-5-phenyloxazole-4-carboxamide] | -7 | 27 | -29
8 | CCCNC(=O)c1nc(-c2ccc(C(F)(F)F)cc2)oc1-c1ccccc1OC [Compound 297, 5-(2-Methoxyphenyl)-N-propyl-2-(4-(trifluoromethyl)phenyl)oxazole-4-carboxamide] | 3 | 34 | 
9 | CCCNC(=O)c1nc(-c2ccc(C(F)(F)F)cc2)oc1-c1ccncc1 [Compound 310, N-Propyl-5-(pyridin-4-yl)-2-(4-(trifluoromethyl)phenyl)oxazole-4-carboxamide] | 49 | 58 | 
10 | CCOC(=O)c1nc(-c2ccc(C(F)(F)F)cc2)oc1-c1cc(OC)cc(OC)c1 [Compound 48, Ethyl 5-(3,5-dimethoxyphenyl)-2-(4-(trifluoromethyl)phenyl)oxazole-4-carboxylate] | 22 | 39 | 87
11 | CCNC(=O)c1nc(-c2ccc(C(F)(F)F)cc2)oc1-c1ccc(OC)c(OC)c1 [Compound 302, 5-(3,4-dimethoxyphenyl)-N-ethyl-2-(4-(Trifluoromethyl)phenyl)oxazole-4-carboxamide] | -34 | -29 | 
12 | CCNC(=O)c1nc(-c2ccc(C(F)(F)F)cc2)oc1-c1ccncc1 [Compound 309, N-Ethyl-5-(pyridin-4-yl)-2-(4-(trifluoromethyl)phenyl)oxazole-4-carboxamide] | 56 | 51 | 
13 | CCNC(=O)c1nc(-c2ccc(C(F)(F)F)cc2)oc1-c1ccccc1OC [Compound 296, N-Ethyl-5-(2-methoxyphenyl)-2-(4-(trifluoromethyl)phenyl)oxazole-4-carboxamide] | 0 | 32 | 
14 | CCCNC(=O)c1nc(-c2ccc(C(F)(F)F)cc2)oc1-c1ccc(OC)cc1 [Compound 301, 5-(4-Methoxyphenyl)-N-propyl-2-(4-(Trifluoromethyl)phenyl)oxazole-4-carboxamide] | 21 | 31 | 
